{"source": "patent US20210345607A1", "about": "“MICROEMULSION FORMULATION CONTAINING CLACYFOS HERBICIDE, PREPARATION METHOD THEREFOR AND USE THEREOF” (Central China Normal University, priority 2018, published 2021)", "key": {"[1]": {"test_system": "wheat", "test": "Safety of 15% and 25% clacyfos microemulsion used in wheat fields, increase in production (B9)", "assay_type": "in vivo", "excerpt": "The microemulsion of 15% clacyfos (the amount of clacyfos added is 15%, the preparation process is referred to preparation example A3) is in the dosage range of 180 g/hm^2 to 600 g/hm^2. The microemulsion of 25% clacyfos (the addition amount of the clacyfos is 25%, the preparation process is referred to preparation example A7) is in the dosage range of 150 g/hm^2 to 720 g/hm^2. At various testing areas, clacyfos was used by stems and leaves treatment of wheat field wheat seedlings."}, "[2]": {"test_system": "monocotyledonous weeds", "test": "Clacyfos weeding spectrum, indoor and field tests (B12)", "assay_type": "in vivo", "settings": "700 g/hm^2 to 800 g/hm^2", "excerpt": "(§1) Combining the results of indoor and field tests of clacyfos, the herbicidal spectrum of clacyfos can be summarized as follows:\n(§2) Echinochloa crusgalli Beava; Digitaria Sanguinalis scop; Alopecurus aequalis; Alopecurus japonicus steud; Setaria viridis; Cynodon dactylon; Eleusine indica; Leptochloa chinensis; Arthraxon hispidus; Eleusine indica; Imperata cyllndrlca; Cyperus difformis; Cyperus iria; Kyllinga brevifolia; Poa cnnua; Monochoria vaginalis; Potamogeton distinctus; Sagittaria pygmaea; Cyperus iria; Eleocharis yokoscensis; Digitaria adscendens; Equisetum arvenense."}, "[3]": {"test_system": "Dicotyledonous and sedge weeds", "test": "Clacyfos weeding spectrum, indoor and field tests (B12)", "assay_type": "in vivo", "settings": "recommended dosage of 450 g/hm^2", "excerpt": "Combining the results of indoor and field tests of clacyfos, the herbicidal spectrum of clacyfos can be summarized as follows: […]"}, "[4]": {"test_system": "Alopecurus aequalis Sobol", "test": "Inhibitory activity of clacyfos against 22 plants or weeds (B12)", "settings": "in vivo", "excerpt": "as §1, §2"}, "[5]": {"test_system": "Amaranthus rebroflexus L.", "test": "Inhibitory activity of clacyfos against 22 plants or weeds (B12)", "settings": "in vivo", "excerpt": "as §1, §2"}, "[6]": {"test_system": "Cyperus microiria", "test": "Inhibitory activity of clacyfos against 22 plants or weeds (B12)", "settings": "in vivo", "excerpt": "as §1, §2"}, "[7]": {"test_system": "Ipomoea heperacea", "test": "Inhibitory activity of clacyfos against 22 plants or weeds (B12)", "settings": "in vivo", "excerpt": "as §1, §2"}, "[8]": {"test_system": "Poa annua L.", "test": "Inhibitory activity of clacyfos against 22 plants or weeds (B12)", "settings": "in vivo", "excerpt": "as §1, §2"}, "[9]": {"test_system": "Abutilontheophrasti Medicus", "test": "Inhibitory activity of clacyfos against 22 plants or weeds (B12)", "settings": "in vivo", "excerpt": "as §1, §2"}, "[10]": {"test_system": "Amaranthus retroflexus", "test": "Inhibitory activity of clacyfos against 22 plants or weeds (B12)", "settings": "in vivo", "excerpt": "as §1, §2"}, "[11]": {"test_system": "Eclipta prostrata L.", "test": "Inhibitory activity of clacyfos against 22 plants or weeds (B12)", "settings": "in vivo", "excerpt": "as §1, §2"}, "[12]": {"test_system": "Medicago saliva", "test": "Inhibitory activity of clacyfos against 22 plants or weeds (B12)", "settings": "in vivo", "excerpt": "as §1, §2"}, "[13]": {"test_system": "Digitaria sanguinalis(L.) Scop", "test": "Inhibitory activity of clacyfos against 22 plants or weeds (B12)", "settings": "in vivo", "excerpt": "as §1, §2"}, "[14]": {"test_system": "Beta Vulgaris", "test": "Inhibitory activity of clacyfos against 22 plants or weeds (B12)", "settings": "in vivo", "excerpt": "as §1, §2"}, "[15]": {"test_system": "Rumex crispus L.", "test": "Inhibitory activity of clacyfos against 22 plants or weeds (B12)", "settings": "in vivo", "excerpt": "as §1, §2"}, "[16]": {"test_system": "Brassica pekinensis", "test": "Inhibitory activity of clacyfos against 22 plants or weeds (B12)", "settings": "in vivo", "excerpt": "as §1, §2"}, "[17]": {"test_system": "Galium aparine", "test": "Inhibitory activity of clacyfos against 22 plants or weeds (B12)", "settings": "in vivo", "excerpt": "as §1, §2"}, "[18]": {"test_system": "Brassica campestris", "test": "Inhibitory activity of clacyfos against 22 plants or weeds (B12)", "settings": "in vivo", "excerpt": "as §1, §2"}, "[19]": {"test_system": "Daucus carota L.", "test": "Inhibitory activity of clacyfos against 22 plants or weeds (B12)", "settings": "in vivo", "excerpt": "as §1, §2"}, "[20]": {"test_system": "Echinochloa crusgalli (L.)", "test": "Inhibitory activity of clacyfos against 22 plants or weeds (B12)", "settings": "in vivo", "excerpt": "as §1, §2"}, "[21]": {"test_system": "Chenopodium album L.", "test": "Inhibitory activity of clacyfos against 22 plants or weeds (B12)", "settings": "in vivo", "excerpt": "as §1, §2"}, "[22]": {"test_system": "Eleusine indica (L.) Gaertn", "test": "Inhibitory activity of clacyfos against 22 plants or weeds (B12)", "settings": "in vivo", "excerpt": "as §1, §2"}, "[23]": {"test_system": "Sinapis alba", "test": "Inhibitory activity of clacyfos against 22 plants or weeds (B12)", "settings": "in vivo", "excerpt": "as §1, §2"}, "[24]": {"test_system": "Setaria viridis(L.) Beauv", "test": "Inhibitory activity of clacyfos against 22 plants or weeds (B12)", "settings": "in vivo", "excerpt": "as §1, §2"}, "[25]": {"test_system": "Herba Cirsii Jeponici", "test": "Inhibitory activity of clacyfos against 22 plants or weeds (B12)", "settings": "in vivo", "excerpt": "as §1, §2"}}}
{"smiles": "Cc1cc(Cl)ccc1OCC(=O)O", "note": "[2-methyl-4-chlorophenoxyacetic acid]", "values": [{"measurement": "Increase in production compared with the control agent", "setting": "[1]; Henan, 32.5 g/mu", "value": "acid 32.5 g (5.51%)"}, {"measurement": "phytotoxicity to wheat", "setting": "[1]; Henan, 32.5 g/mu", "value": "a certain phytotoxicity"}, {"measurement": "Increase in production compared with the control agent", "setting": "[1]; Zaoyang, 40 g/mu", "value": "acid 40 g (20.91%)"}]}
{"smiles": "COP(=O)(OC)C(C)OC(=O)COc1ccc(Cl)cc1Cl", "note": "(centres unmarked) [clacyfos, O, O-dimethyl-1-(2,4-dichlorophenoxyacetoxy) ethyl phosphonate]", "values": [{"measurement": "control of the monocotyledonous weeds listed", "setting": "[2]", "value": "can be controlled"}, {"measurement": "control of the dicotyledonous and sedge weeds listed", "setting": "[3]", "value": "can be effectively controlled"}, {"measurement": "Sensitivity", "setting": "[4]", "value": "Resistance"}, {"measurement": "Visual activity", "setting": "[4]", "value": 0, "unit": "%"}, {"measurement": "Visual activity", "setting": "[5]", "value": 100, "unit": "%"}, {"measurement": "Sensitivity", "setting": "[6]", "value": "Sensitive"}, {"measurement": "Visual activity", "setting": "[6]", "value": 90, "unit": "%"}, {"measurement": "Visual activity", "setting": "[7]", "value": 100, "unit": "%"}, {"measurement": "Visual activity", "setting": "[8]", "value": 50, "unit": "%"}, {"measurement": "Sensitivity", "setting": "[9]", "value": "Sensitive"}, {"measurement": "Visual activity", "setting": "[9]", "value": 85, "unit": "%"}, {"measurement": "Visual activity", "setting": "[10]", "value": 100, "unit": "%"}, {"measurement": "Visual activity", "setting": "[11]", "value": 100, "unit": "%"}, {"measurement": "Sensitivity", "setting": "[12]", "value": "Sensitive"}, {"measurement": "Visual activity", "setting": "[12]", "value": 90, "unit": "%"}, {"measurement": "Visual activity", "setting": "[13]", "value": 40, "unit": "%"}, {"measurement": "Visual activity", "setting": "[14]", "value": 95, "unit": "%"}, {"measurement": "Sensitivity", "setting": "[15]", "value": "Sensitive"}, {"measurement": "Visual activity", "setting": "[15]", "value": 80, "unit": "%"}, {"measurement": "Visual activity", "setting": "[16]", "value": 100, "unit": "%"}, {"measurement": "Visual activity", "setting": "[17]", "value": 60, "unit": "%"}, {"measurement": "Visual activity", "setting": "[18]", "value": 100, "unit": "%"}, {"measurement": "Visual activity", "setting": "[19]", "value": 100, "unit": "%"}, {"measurement": "Visual activity", "setting": "[20]", "value": 30, "unit": "%"}, {"measurement": "Visual activity", "setting": "[21]", "value": 100, "unit": "%"}, {"measurement": "Visual activity", "setting": "[22]", "value": 100, "unit": "%"}, {"measurement": "Visual activity", "setting": "[23]", "value": 95, "unit": "%"}, {"measurement": "Visual activity", "setting": "[24]", "value": 50, "unit": "%"}, {"measurement": "Visual activity", "setting": "[25]", "value": 100, "unit": "%"}]}
